Assay results from ChEMBL document CHEMBL5579888, “A Comparative Study on the DNA Interactions and Biological Activities of Benzophenanthridine and Protoberberine Alkaloids” (J Nat Prod, 2024).
Calls of active or inactive are those of the source. No cut-off for these calls is given here.

Assays:
[1] = test system: Quadruplex DNA; test: Binding affinity to human G4-quadruplex 22AG DNA 5'- AGGGTTAGGGTTAGGGTTAGGG -3' at 20 uM by UV-Visible absorption spectroscopic analysis; type: nucleic-acid assay
[2] = test system: Quadruplex DNA; test: Binding affinity to human G4-quadruplex Pu27 DNA 5'- TGGGGAGGGTGGGGAGGGTGGGGAAGG-3' at 20 uM by UV-Visible absorption spectroscopic analysis; type: nucleic-acid assay
[3] = test system: Quadruplex DNA; test: Binding affinity to human G4-quadruplex Bcl2 DNA 5'- CGGGCGCGGGAGGAAGGGGGCGGGAGC-3' at 20 uM by UV-Visible absorption spectroscopic analysis; type: nucleic-acid assay
[4] = test system: Quadruplex DNA; test: Binding affinity to human G4-quadruplex VEGF DNA 5'- GGGCGGGCCGGGGGCGGG-3' at 20 uM by UV-Visible absorption spectroscopic analysis; type: nucleic-acid assay
[5] = test system: dsDNA; test: Binding affinity to double stranded DNA ssab (unknown origin) assessed as change in fluorescence intensity at 1 uM incubated for 0.5 hrs by fluorescence spectra analysis; type: nucleic-acid assay
[6] = test system: Quadruplex DNA; test: Binding affinity to human G4-quadruplex KRAS DNA 5'- AGGGCGGTGTGGGAAGAGGGAAGAGGGGGAGG-3' assessed as change in fluorescence intensity at 1 uM incubated for 0.5 hrs by fluorescence spectra analysis; type: nucleic-acid assay
[7] = test system: Quadruplex DNA; test: Binding affinity to human G4-quadruplex VEGF DNA 5'- GGGCGGGCCGGGGGCGGG-3' assessed as change in fluorescence intensity at 1 uM incubated for 0.5 hrs by fluorescence spectra analysis; type: nucleic-acid assay
[8] = target: Quadruplex DNA; test: Binding affinity to human G4-quadruplex 22AG DNA 5'- AGGGTTAGGGTTAGGGTTAGGG -3' assessed as change in fluorescence intensity at 1 uM incubated for 0.5 hrs in presence of different concentrations of DNA by fluorescence spectra analysis; type: nucleic-acid assay
[9] = target: Quadruplex DNA; test: Binding affinity to human G4-quadruplex Oxy28 DNA 5'- GGGGTTTTGGGGTTTTGGGGTTTTGGGG -3' assessed as change in fluorescence intensity at 1 uM incubated for 0.5 hrs in presence of different concentrations of DNA by fluorescence spectra analysis; type: nucleic-acid assay
[10] = target: Quadruplex DNA; test: Binding affinity to human G4-quadruplex KRAS DNA 5'- AGGGCGGTGTGGGAAGAGGGAAGAGGGGGAGG-3' assessed as change in fluorescence intensity at 1 uM incubated for 0.5 hrs in presence of different concentrations of DNA by fluorescence spectra analysis; type: nucleic-acid assay
[11] = test system: Calf thymus DNA; test: Displacement of Hoechst 33342 from calf thymus DNA incubated for 0.5 hrs by SpectraMax M2 microplate reader analysis; type: nucleic-acid assay, Bos taurus
[12] = target: dsDNA; test: Displacement of Hoechst 33342 from double stranded DNA ssab (unknown origin) incubated for 0.5 hrs by SpectraMax M2 microplate reader analysis; type: nucleic-acid assay
[13] = target: Quadruplex DNA; test: Displacement of ThT from human G4-quadruplex 22AG DNA 5'- AGGGTTAGGGTTAGGGTTAGGG -3' incubated for 0.5 hrs by SpectraMax M2 microplate reader analysis; type: nucleic-acid assay
[14] = target: Quadruplex DNA; test: Displacement of ThT from human G4-quadruplex Pu27 DNA 5'- TGGGGAGGGTGGGGAGGGTGGGGAAGG-3' incubated for 0.5 hrs by SpectraMax M2 microplate reader analysis; type: nucleic-acid assay
[15] = target: dsDNA; test: Binding affinity to double stranded DNA ssab1 (unknown origin) incubated for 0.5 hrs in presence of different concentration DNA by fluorescence spectra analysis; type: nucleic-acid assay
[16] = target: dsDNA; test: Binding affinity to double stranded DNA ssab2 (unknown origin) incubated for 0.5 hrs in presence of different concentration DNA by fluorescence spectra analysis; type: nucleic-acid assay
[17] = target: dsDNA; test: Binding affinity to double stranded DNA AT12 (unknown origin) incubated for 0.5 hrs in presence of different concentration DNA by fluorescence spectra analysis; type: nucleic-acid assay
[18] = target: dsDNA; test: Binding affinity to double stranded DNA AT15 (unknown origin) incubated for 0.5 hrs in presence of different concentration DNA by fluorescence spectra analysis; type: nucleic-acid assay
[19] = target: dsDNA; test: Binding affinity to double stranded DNA AT15-2AT (unknown origin) incubated for 0.5 hrs in presence of different concentration DNA by fluorescence spectra analysis; type: nucleic-acid assay
[20] = test system: LoVo; test: Antiproliferative activity against human LoVo cells assessed as reduction in cell viability incubated for 48 hrs by CCK-8 assay; type: functional, cell-based
[21] = test system: A2780/Taxol; test: Antiproliferative activity against human A2780T cells assessed as reduction in cell viability incubated for 48 hrs by CCK-8 assay; type: functional, cell-based
[22] = test system: A549/TR; test: Antiproliferative activity against human A549/Taxol cells assessed as reduction in cell viability incubated for 48 hrs by CCK-8 assay; type: functional, cell-based
[23] = test system: PC-3; test: Antiproliferative activity against human PC-3 cells assessed as reduction in cell viability incubated for 24 hrs by CCK-8 assay; type: functional, cell-based; settings: PC-3, 24 h
[24] = test system: A-375; test: Inhibition of RNA synthesis in human A-375 cells at 5 uM incubated for 24 hrs by EU incorporation based flow cytometry analysis; type: functional, cell-based
[25] = test system: A-375; test: Induction of cell cycle arrest in human A-375 cells assessed assessed as cell accumulation at G0/G1 phase at 5 uM incubated for 24 hrs by propidium iodide staining based flow cytometry (reference value: 54.25 %); type: functional
[26] = test system: A-375; test: Induction of cell cycle arrest in human A-375 cells assessed assessed as cell accumulation at G2/M phase at 5 uM incubated for 24 hrs by propidium iodide staining based flow cytometry (reference value: 15.70 %); type: functional
[27] = test system: A-375; test: Induction of apoptosis in human A-375 cells assessed assessed as viable cells at 5 uM incubated for 24 hrs by Annexin V-Elab Fluor 647/propidium iodide staining based flow cytometry (reference value: 91.1 %); type: functional; settings: read-out: Activity
[28] = test system: A-375; test: Induction of apoptosis in human A-375 cells assessed assessed as early apoptotic cells at 5 uM incubated for 24 hrs by Annexin V-Elab Fluor 647/propidium iodide staining based flow cytometry (reference value: 1.14 %); type: functional
[29] = test system: A-375; test: Induction of apoptosis in human A-375 cells assessed assessed as necrotic cells at 5 uM incubated for 24 hrs by Annexin V-Elab Fluor 647/propidium iodide staining based flow cytometry (reference value: 1.45 %); type: functional

| Compound | Activity [1] | Activity [2] | Activity [3] | Activity [4] | Activity [5] | Activity [6] | Activity [7] | Kd [10] [nM] | DC50 [11] [nM] | DC50 [12] [nM] | DC50 [13] [nM] | DC50 [14] [nM] | EC50 [15] [nM] | EC50 [16] [nM] | EC50 [17] [nM] | EC50 [19] [nM] | inhibition [24] | Activity [25] [%] | Activity [26] [%] | viability at 5 µM [27] [%] | further results |
| --- | --- | --- | --- | --- | --- | --- | --- | --- | --- | --- | --- | --- | --- | --- | --- | --- | --- | --- | --- | --- | --- |
| c1c2c(cc3c1OCO3)-c1cc3ccc4c(c3c[n+]1CC2)OCO4 [COPTISINE] | Active | Active | Active | Active | inactive | Active | Active | 1130 | 31400 | 23000 | 1970 | 140 | 9390 | 7250 | 18500 | 3920 | inactive | 57.31 | 14.48 | 0.022 | Kd [8]: 5930 nM; Kd [9]: 980 nM; EC50 [18]: 1690 nM; IC50 [20]: ≥ 24300 nM; IC50 [21]: ≥ 24300 nM; IC50 [22]: ≥ 24300 nM; IC50 [23]: ≥ 24300 nM; Activity [28]: 0%; Activity [29]: 84.6% |
| C[n+]1cc2c3c(ccc2c2ccc4cc5c(cc4c21)OCO5)OCO3 [SANGUINARIUM] | Active | Active | Active | Active | Active | Active | Active | 2790 | 5870 | 3210 | 2760 | 260 | 790 | 1630 | 4150 | 1070 | Active | 40.85 | 27.86 | 20.4 | Activity [8]: inactive; Activity [9]: inactive; EC50 [18]: 610 nM; Activity [28]: 0.84%; Activity [29]: 29.3% |
| COc1ccc2c(c[n+](C)c3c4cc5c(cc4ccc23)OCO5)c1OC [CHELERYTHRINE] | Active | Active | Active | Active | Active | Active | Active | 1070 | 6700 | 3490 | 3040 | 480 | 970 | 1060 | 2110 | 1120 | Active | 36.15 | 30.83 | 56 | Activity [8]: inactive; Activity [9]: inactive; EC50 [18]: 1130 nM; Activity [28]: 1.84%; Activity [29]: 6.96% |
| COc1ccc2cc3[n+](cc2c1OC)CCc1cc2c(cc1-3)OCO2 [BERBERINE] | Active | Active | Active | Active | inactive | Active | Active | 1890 | 30700 | 22100 | 23500 | 540 | 450 | 100 | 130 | 150 | inactive | 56.99 | 14.59 | 35.4 | Kd [8]: 15600 nM; Kd [9]: 1670 nM; Activity [18]: inactive; IC50 [20]: ≥ 24300 nM; IC50 [21]: ≥ 24300 nM; IC50 [22]: ≥ 24300 nM; IC50 [23]: ≥ 24300 nM; Activity [28]: 1.28%; Activity [29]: 56.1% |
